{"source": "patent US8597688B2", "about": "“Pesticidal mixtures comprising isoxazoline compounds II” (BASF SE, priority 2008, dated 2013)", "assay_type_in_all_cases": "cell-based", "key": {"Septoria tritici": {"system": "Septoria tritici", "assay": "Activity against leaf blotch on wheat caused by Septoria tritici (Septtr), microtiter test", "conditions": "day 7"}, "Pyricularia oryzae": {"system": "Pyricularia oryzae", "conditions": "single active compound, Pyrior microtiter test"}, "Botrytis cinerea": {"system": "Botrytis cinerea", "assay": "Activity against the grey mold Botrytis cinerea in the microtiterplate test (Botrci)", "conditions": "7 days"}, "Phytophthora infestans": {"system": "Phytophthora infestans", "conditions": "day 7"}}, "note": "Where two headings read alike, the source gives them in different places."}
{"compound": "Cc1cc(C2=NOC(c3cc(Cl)cc(Cl)c3)(C(F)(F)F)C2)ccc1C(=O)NCC(=O)NCC(F)(F)F", "note": "(stereo not drawn) [C.I.240]", "values": [{"measurement": "Observed efficacy", "setting": "Septoria tritici; 4 ppm", "result": 0, "unit": "%"}, {"measurement": "Observed efficacy", "setting": "Pyricularia oryzae; concentration 1 ppm", "result": 0}, {"measurement": "Observed efficacy", "setting": "Pyricularia oryzae; concentration 4 ppm", "result": 11}, {"measurement": "Observed efficacy", "setting": "Botrytis cinerea; 0.063 ppm", "result": 0, "unit": "%"}, {"measurement": "Observed efficacy", "setting": "Botrytis cinerea; 16 ppm", "result": 18, "unit": "%"}, {"measurement": "Observed efficacy", "setting": "Phytophthora infestans; 4 ppm", "result": 6, "unit": "%"}, {"measurement": "Observed efficacy", "setting": "Phytophthora infestans; 16 ppm", "result": 15, "unit": "%"}]}
{"compound": "O=C(CNC(=O)c1ccc(C2=NOC(c3cc(Cl)cc(Cl)c3)(C(F)(F)F)C2)c2ccccc12)NCC(F)(F)F", "note": "(stereo not drawn) [C.I.402]", "values": [{"measurement": "Observed efficacy", "setting": "Septoria tritici; 4 ppm", "result": 2, "unit": "%"}, {"measurement": "Observed efficacy", "setting": "Septoria tritici; 63 ppm", "result": 0, "unit": "%"}, {"measurement": "Observed efficacy", "setting": "Pyricularia oryzae; concentration 1 ppm", "result": 6}, {"measurement": "Observed efficacy", "setting": "Pyricularia oryzae; concentration 4 ppm", "result": 35}]}
{"compound": "COC(=O)Nc1nc2ccccc2[nH]1", "note": "[Carbendazim]", "values": [{"measurement": "Observed efficacy", "setting": "Pyricularia oryzae; concentration 0.25 ppm", "result": 18}]}
{"compound": "N#Cc1c(Cl)c(Cl)c(Cl)c(C#N)c1Cl", "note": "[Chlorothalonil, 2,4,5,6-tetrachloroisophthalonitrile, reference compound]", "values": [{"measurement": "Observed efficacy", "setting": "Botrytis cinerea; 1 ppm", "result": 43, "unit": "%"}, {"measurement": "Observed efficacy", "setting": "Phytophthora infestans; 1 ppm", "result": 53, "unit": "%"}]}
{"compound": "Fc1ccc([C@]2(Cn3cncn3)O[C@H]2c2ccccc2Cl)cc1", "note": "[Epoxiconazol]", "values": [{"measurement": "Observed efficacy", "setting": "Pyricularia oryzae; concentration 0.063 ppm", "result": 0}]}
{"compound": "CC1(C(=O)Nc2ccc(O)c(Cl)c2Cl)CCCCC1", "note": "[Fenhexamid, N-(2,3-dichloro-4-hydroxyphenyl)-1-methylcyclohexanecarboxamide, reference compound]", "values": [{"measurement": "Observed efficacy", "setting": "Botrytis cinerea; 0.016 ppm", "result": 51, "unit": "%"}]}
{"compound": "CO/N=C(/C1=NOCCO1)c1ccccc1Oc1ncnc(Oc2ccccc2Cl)c1F", "note": "[Fluoxastrobin, (E)-{2-[6-(2-chlorophenoxy)-5-fluoropyrimidin-4-yloxy]phenyl}(5,6-dihydro-1,4,2-dioxazin-3-yl)methanone O-methyloxime, reference compound]", "values": [{"measurement": "Observed efficacy", "setting": "Septoria tritici; 0.25 ppm", "result": 68, "unit": "%"}]}
{"compound": "CC(C)OC(=O)N[C@H](C(=O)N[C@H](C)c1nc2ccc(F)cc2s1)C(C)C", "note": "[Fubenthiavalicarb (Benthivalicarb), isopropyl {(S)-1-[(1R)-1-(6-fluorobenzothiazol-2-yl)-ethylcarbamoyl]-2-methylpropyl}carbamate, reference compound]", "values": [{"measurement": "Observed efficacy", "setting": "Septoria tritici; 4 ppm", "result": 0, "unit": "%"}]}
{"compound": "CC(C)NC(=O)N1CC(=O)N(c2cc(Cl)cc(Cl)c2)C1=O", "note": "[Iprodion]", "values": [{"measurement": "Observed efficacy", "setting": "Pyricularia oryzae; concentration 0.24 ppm", "result": 4}]}
{"compound": "CO/C=C(/C(=O)OC)c1ccccc1COc1cccc(C(F)(F)F)n1", "note": "[Picoxystrobin]", "values": [{"measurement": "Observed efficacy", "setting": "Pyricularia oryzae; concentration 0.063 ppm", "result": 60}]}
{"compound": "COC(=O)N(OC)c1ccccc1COc1ccn(-c2ccc(Cl)cc2)n1", "note": "[Pyraclostrobin, methyl N-{2-[1-(4-chlorophenyl)-1H-pyrazol-3-yloxymethyl]phenyl}(N-methoxy)carbamate, reference compound]", "values": [{"measurement": "Observed efficacy", "setting": "Pyricularia oryzae; concentration 0.004 ppm", "result": 26}, {"measurement": "Observed efficacy", "setting": "Phytophthora infestans; 0.016 ppm", "result": 13, "unit": "%"}]}
{"compound": "CON=C(C(=O)OC)c1ccccc1CON=C(C)c1cccc(C(F)(F)F)c1", "note": "[Trifloxystrobin]", "values": [{"measurement": "Observed efficacy", "setting": "Pyricularia oryzae; concentration 0.063 ppm", "result": 32}]}
{"compound": "Mancozeb", "values": [{"measurement": "Observed efficacy", "setting": "Pyricularia oryzae; concentration 1 ppm", "result": 36}]}
